Where “and” joins values, the source holds several entries; their conditions need not be identical. Equal values may be shown once. Entries after “also recorded” stand apart in the source; their conditions may differ. Read-outs that look alike come from different tables or passages of the source.
Key:
[1] = tested on: reticulum cell sarcoma M5076; assay: Reticulum cell sarcoma M5076 tumor weight in C57B1/6 mice; type: in vivo, mouse; conditions: qd days 1,3,5,7,9,11; for Tumor wt, staging day (mean ± 1SD): before treatment (day 15 post inoculation); for Tumor wt, evaluation day (mean ± 1SD): day 12 of treatment
Procedure: In this example Compound 19 was tested against reticulum cell sarcoma M5076. For this and certain other tests below, test results are shown as δT/δC. Utilizing this protocol the difference in tumor weight before treatment and after treatment of the treated animals compared to the control animals is determined.

B-16 melanoma = assay: Activity against B-16 melanoma; conditions: in vivo
Colon 26 Adenocarcinoma = assay: Survival of CDF1 mice bearing Colon 26 Adenocarcinoma; type: in vivo, mouse; conditions: for T/C (%): ≥150% significant
Procedure: In Example Q Compound 19 was tested against Colon 26 Adenocarcinoma.

L1210 cells = L1210 cells surviving treatment (% of original inoculum); type: in vivo, mouse
Excerpt: Values below 25% are considered capable of producing effective therapy, those below 10% are considered good and those below 5% are considered very good. This expresses the percent of the cells which survived treatment based upon the original cells in the inoculum. Those tests expressed as increases in life span (% ILS) indicate the increased life span of the drug treated group compared to a control group.
As an indicator of reproducible activity, compounds of the invention and other known cancer chemotherapeutic agents were screened against L1210 lymphoid leukemia in vivo utilizing the mouse as a test species. Normal NCI protocols for this test require 10^5 seed cells of the L1210 cell line. However for the purposes of tests with the L1210 cell line in testing the compounds of the invention for antitumor activity, a log greater, i.e. 10^6 cells were utilized.
Tables 2-a and 2-b illustrate a dose response for Compound 19 against L1210 inoculated mice expressed as both increased life span compared to control and as the number of cells of the original inoculum surviving drug treatment. As is evident from the various regimens of drug treatment shown in Tables 2-a and 2-b, effective therapeutic effects are noted and a dose response to Compound 19 is evident. […] Cytosine Arabinoside must be given every three hours. Test results are given utilizing standard protocols based on mean survival time and are expressed as T/C percentages (treated animals/control animals).

[2] = tested on: L1210/6MP, 6TG, 6TGR cells; assay: L1210/6MP, 6TG, 6TGR cells surviving treatment; type: in vivo, mouse; conditions: for RCP (Residual Cell Population): L1210/6MP,6TG
Procedure: In Example G Compound 19 was tested against both L1210 cells and L1210 cells which were resistant to 6-Mercaptopurine, 6-Thioguanine and 6-Thioguanosine. […] As was noted above, drugs in the 6-Mercaptopurine family are presently among the drugs of choice for treatment of leukemia.

Lewis lung carcinoma = assay: Activity against Lewis lung carcinoma; conditions: in vivo
L1210/5FU cells = assay: 5-Fluorouracil resistant L1210 cells surviving treatment; type: in vivo, mouse
Procedure: (§1) In Examples G through K Compound 19 was tested against L1210 cell lines which had developed resistance to other known cancer chemotherapeutic agents.
In Example J, the results of which are shown in Table 10 below, Compound 19 was tested against 5-Fluorouracil resistant cells.

[3] = tested on: L1210/6MP, 6TG, 6TGR cells; assay: Life span of mice inoculated with L1210 resistant to 6MP, 6TG, 6TGR; type: in vivo, mouse; conditions: for ILS: L1210/6MP,6TG; for activity against drug resistant cells (words): mouse, in vivo
[4] = tested on: drug resistant cell lines; assay: Generation of drug resistant cell lines
L1210/Compound 18 cells = assay: Compound 18 resistant L1210 cells surviving treatment; type: in vivo, mouse
Procedure: as §1
In Example K, the results of which are shown in Table 11 below, Compound 19 was tested against drug resistant cell lines developed against Compound 18. […]

[5] = ip 62 mg/kg/inj, bid days 1,4,7
[6] = ip 104 mg/kg/inj, qd days 1,3,5,7
[7] = ip 104 mg/kg/inj, qd days 1,4,7
[8] = ip 173 mg/kg/inj, qd days 1,3,5,7
[9] = ip 173 mg/kg/inj, qd days 1,4,7
[10] = ip 37 mg/kg/inj, bid days 1,3,5,7
[11] = oral 37 mg/kg/inj, bid days 1,3,5,7
[12] = oral 62 mg/kg/inj, bid days 1,4,7
[13] = listed as 2-amino-9-β-D-ribofuranosyl-9H-purine-6-sulfinamide

Nc1nc([S+](N)[O-])c2ncn([C@@H]3O[C@H](CO)[C@@H](O)[C@H]3O)c2n1 (mixture of isomers) [Compound 19, 2-amino-9-β-D-ribofuranosyl-9H-purine-6-sulfinamide]
Tumor wt, staging day (mean ± 1SD) ([1]; ip 110.8 mg/kg/inj group): 396 ± 116 mg | Tumor wt, staging day (mean ± 1SD) ([1]; ip 138.4 mg/kg/inj group): 355 ± 79 mg | Tumor wt, staging day (mean ± 1SD) ([1]; ip 173.0 mg/kg/inj group): 354 ± 81 mg | Tumor wt, evaluation day (mean ± 1SD) ([1]; ip 110.8 mg/kg/inj): 1121 ± 343 mg | Tumor wt, evaluation day (mean ± 1SD) ([1]; ip 138.4 mg/kg/inj): 855 ± 325 mg | Tumor wt, evaluation day (mean ± 1SD) ([1]; ip 173.0 mg/kg/inj): 409 ± 385 mg | δT/δC ([1]; ip 110.8 mg/kg/inj): 65.8 | δT/δC ([1]; ip 138.4 mg/kg/inj): 45.4 | δT/δC ([1]; ip 173.0 mg/kg/inj): 5.0 | activity against B-16 melanoma (B-16 melanoma): No activity | Median survival time (Colon 26 Adenocarcinoma; [5]): 45 days post inoculation | T/C (%) (Colon 26 Adenocarcinoma; [5]): 196% | Median survival time (Colon 26 Adenocarcinoma; ip 62 mg/kg/inj, qd days 1-7): 40 days post inoculation | T/C (%) (Colon 26 Adenocarcinoma; ip 62 mg/kg/inj, qd days 1-7): 174% | Median survival time (Colon 26 Adenocarcinoma; ip 104 mg/kg/inj, bid days 1,4,7, group included 6 toxic deaths): 17 days post inoculation | Median survival time (Colon 26 Adenocarcinoma; [6]): 34 days post inoculation | T/C (%) (Colon 26 Adenocarcinoma; [6]): 148% | Median survival time (Colon 26 Adenocarcinoma; [7]): 31 days post inoculation | T/C (%) (Colon 26 Adenocarcinoma; [7]): 135% | Median survival time (Colon 26 Adenocarcinoma; ip 104 mg/kg/inj, qd days 1-7): 38 days post inoculation | T/C (%) (Colon 26 Adenocarcinoma; ip 104 mg/kg/inj, qd days 1-7): 165% | Median survival time (Colon 26 Adenocarcinoma; [8]): 42 days post inoculation | T/C (%) (Colon 26 Adenocarcinoma; [8]): 183% | Median survival time (Colon 26 Adenocarcinoma; [9]): 31 days post inoculation | T/C (%) (Colon 26 Adenocarcinoma; [9]): 135% | L1210 cells surviving day 7 treatment (% of original inoculum) (L1210 cells; 22 mg/kg, bid days 1,3,5,7): 594% | L1210 cells surviving day 7 treatment (% of original inoculum) (L1210 cells; 22 mg/kg, bid days 1,4,7): 9211% | L1210 cells surviving day 7 treatment (% of original inoculum) (L1210 cells; 22 mg/kg, bid days 1-7): 343% | L1210 cells surviving day 7 treatment (% of original inoculum) (L1210 cells; 37 mg/kg, bid days 1,3,5,7): 17% | L1210 cells surviving day 7 treatment (% of original inoculum) (L1210 cells; 37 mg/kg, bid days 1,4,7): 87% | L1210 cells surviving day 7 treatment (% of original inoculum) (L1210 cells; 37 mg/kg, bid days 1-7): 22% | L1210 cells surviving day 7 treatment (% of original inoculum) (L1210 cells; 37 mg/kg, qd days 1,3,5,7): 3077% | L1210 cells surviving day 7 treatment (% of original inoculum) (L1210 cells; 37 mg/kg, qd days 1,4,7): 15936% | L1210 cells surviving day 7 treatment (% of original inoculum) (L1210 cells; 37 mg/kg, qd days 1-7): 115% | L1210 cells surviving day 7 treatment (% of original inoculum) (L1210 cells; 62 mg/kg, bid days 1,3,5,7): 0.3% | L1210 cells surviving day 7 treatment (% of original inoculum) (L1210 cells; 62 mg/kg, bid days 1,4,7): 5.6% | L1210 cells surviving day 7 treatment (% of original inoculum) (L1210 cells; 62 mg/kg, qd days 1,3,5,7): 50% | L1210 cells surviving day 7 treatment (% of original inoculum) (L1210 cells; 62 mg/kg, qd days 1,4,7): 594% | L1210 cells surviving treatment (% of original inoculum) (L1210 cells; 62 mg/kg, qd days 1-7): 13% | L1210 cells surviving treatment (% of original inoculum) (L1210 cells; 104 mg/kg, qd days 1,3,5,7): 17% | L1210 cells surviving treatment (% of original inoculum) (L1210 cells; 104 mg/kg, qd days 1,4,7): 29% | L1210 cells surviving treatment (% of original inoculum) (L1210 cells; 173 mg/kg, qd days 1,3,5,7): 0.2% | L1210 cells surviving treatment (% of original inoculum) (L1210 cells; 173 mg/kg, qd days 1,4,7): 1.1% | RCP (Residual Cell Population) (L1210 cells; [10]): .32 | L1210 cells surviving (% of day zero inoculum) (L1210 cells; ip 62 mg/kg, bid day 1): 0.8% | L1210 cells surviving (% of day zero inoculum) (L1210 cells; ip 62 mg/kg, qd day 1, 62 mg/kg): 0.8% and 8.5% | L1210 cells surviving (% of day zero inoculum) (L1210 cells; ip 62 mg/kg, tid day 1): 0.4% | RCP (Residual Cell Population) (L1210 cells; [5]): .14 | L1210 cells surviving (% of day zero inoculum) (L1210 cells; ip 104 mg/kg, qd day 1): 5.4% | L1210 cells surviving treatment (% of day zero inoculum) (L1210 cells; ip 104 mg/kg/day, qd days 1-7, 1 long term survivor not included): 0.04% | L1210 cells surviving (% of day zero inoculum) (L1210 cells; ip 173 mg/kg, qd day 1): 1.4% | RCP (Residual Cell Population) (L1210 cells; [11]): 3.73 | RCP (Residual Cell Population) (L1210 cells; [12]): 8.48 | RCP (Residual Cell Population) [2, 10]: .28 | RCP (Residual Cell Population) [2, 5]: .09 | L1210/6MP, 6TG, 6TGR cells surviving (% of day zero inoculum) ([2]; ip 62 mg/kg, bid day 1): 15.9% | L1210/6MP, 6TG, 6TGR cells surviving (% of day zero inoculum) ([2]; ip 62 mg/kg, qd day 1): 15.9% | L1210/6MP, 6TG, 6TGR cells surviving (% of day zero inoculum) ([2]; ip 62 mg/kg, tid day 1): 15.9% | L1210/6MP, 6TG, 6TGR cells surviving (% of day zero inoculum) ([2]; ip 104 mg/kg, qd day 1): 54.5% | L1210/6MP, 6TG, 6TGR cells surviving (% of day zero inoculum) ([2]; ip 173 mg/kg, qd day 1): 4.6% | activity against Lewis lung carcinoma (Lewis lung carcinoma): No activity | L1210/5FU cells surviving (% of day zero inoculum) (L1210/5FU cells; ip 62 mg/kg/day, qd days 1-7): 933% | L1210/5FU cells surviving (% of day zero inoculum) (L1210/5FU cells; ip 104 mg/kg/day, qd days 1,3,5,7): 525% | L1210/5FU cells surviving (% of day zero inoculum) (L1210/5FU cells; ip 104 mg/kg/day, qd days 1-7): 3% | L1210/5FU cells surviving (% of day zero inoculum) (L1210/5FU cells; ip 173 mg/kg/day, qd days 1,3,5,7): 13% | activity against 5-Fluorouracil resistant cells (L1210/5FU cells; large dosages): highly active against these resistant cells | Activity against I.P. L1210 cells resistant to 6MP, 6TG, 6TGR, T/C ([3]; 37 mg/kg, bid days 1,3,5,7): 165.6% | Activity against I.P. L1210 cells resistant to 6MP, 6TG, 6TGR, T/C ([3]; 62 mg/kg, bid day 1): 133.3% | Activity against I.P. L1210 cells resistant to 6MP, 6TG, 6TGR, T/C ([3]; 62 mg/kg, bid days 1,4,7): 175.0% | Activity against I.P. L1210 cells resistant to 6MP, 6TG, 6TGR, T/C ([3]; 62 mg/kg, qd day 1): 127.3% | Activity against I.P. L1210 cells resistant to 6MP, 6TG, 6TGR, T/C ([3]; 62 mg/kg, tid day 1): 133.3% | Activity against I.P. L1210 cells resistant to 6MP, 6TG, 6TGR, T/C ([3]; 104 mg/kg, bid day 1): 150.0% | Activity against I.P. L1210 cells resistant to 6MP, 6TG, 6TGR, T/C ([3]; 104 mg/kg, qd day 1): 122.2% | Activity against I.P. L1210 cells resistant to 6MP, 6TG, 6TGR, T/C ([3]; 173 mg/kg, qd day 1): 144.5% | ILS [3, 10]: 66% | ILS [3, 5]: 75% | ILS [3, 11]: 0% | ILS [3, 12]: 0% | activity against drug resistant cells (words) [3]: exhibited activity against the drug resistant cells; also recorded: active | activity against drug resistant cells (words) [3, 13]: demonstrated activity against cells which have become resistant to other chemotherapeutic agents | generation of drug resistant cell lines (words) [4]: has not been found to generate resistant cell lines | generation of drug resistant cell lines (words) [4, 13]: lack of generating resistant cell lines; also recorded: lack of resistance cell generation | L1210/Compound 18 cells surviving (% of day zero inoculum) (L1210/Compound 18 cells; ip 62 mg/kg/day, bid day 1): 27.4% | L1210/Compound 18 cells surviving (% of day zero inoculum) (L1210/Compound 18 cells; ip 62 mg/kg/day, qd day 1): 100.0% | L1210/Compound 18 cells surviving (% of day zero inoculum) (L1210/Compound 18 cells; ip 104 mg/kg/day, qd day 1): 17.9% | L1210/Compound 18 cells surviving (% of day zero inoculum) (L1210/Compound 18 cells; ip 173 mg/kg/day, qd day 1): 7.5% | activity against Compound 18 resistant L1210 (L1210/Compound 18 cells; mouse, in vivo): effective against those L1210 cell lines which have developed resistance against Compound 18; also recorded: active against cells which developed resistance to Compound 18
